# Source: US10940201B2, “Nucleic acid derivative having immunostimulatory activity” (Shionogi & Co., Ltd., priority 2015, dated 2021)
# Legend:
# TRP2-specific CTL = test: CTL inducibility of TRP2 peptide vaccine with adjuvant (tetramer staining); format: in vivo, C57BL/6JJcl mice
# Experimental: C57BL/6JJcl mice (6 to 8 weeks old) were purchased from CLEA Japan, Inc.
# an adjuvant of the present invention or the well-known CpG ODN
# The specific immunity was induced by vaccinating a mouse twice at 7 days intervals. Each vaccine was that 100 μg of TRP2 peptide, and 1.57 or 4.71 nmol of an adjuvant of the present invention or well-known CpG ODN, were dissolved in 1×PBS. 100 μL of the vaccine was administered subcutaneous injection on the flank of a mouse.
# 100 μL of the emulsion vaccine was administered subcutaneous injection on the flank of a mouse twice at 7 days intervals.
# On 7 days after second vaccination, the blood was collected, red blood cells was removed by BD Pharm Lyse (BD pharmingen), and the white blood cells were suspended in FACS buffer (1% fetal bovine serum, 2 mM PBS with EDTA). Anti-mouse CD16/32 monoclonal antibody (BioXcell) was added thereto, and Fc receptor blocking was carried out at 4° C. for 30 minutes. […] Then, staining was carried out with DAPI (Invitrogen) and the cells were washed twice with FACS buffer. It was resuspended in FACS buffer and analyzed by FACS verse Flow Cytometer (BD bioscience) and FAC Suite software (BD bioscience). For analysis, after DAPI negative fraction was gated, white blood cells fraction were provided using forward and side-way scattering as indicators. In the white blood cells fraction, both positive cells of Alexa 647-CD8 and PE-H-2Kb Tetramer were defined as CTLs. CTL ratio in white blood cells was used for evaluation.
# After calculation of the average CTL inducibility of each group per experiment, the ratio against average value of CTL inducibility of ssCpG ODN, ODN1826 (SEQ-1) or ODN2006 (SEQ-49) as a control was calculated.
# In the case of an adjuvant comprising ODN1826 (Average of CTL inducibility of the adjuvant group)/(Average of CTL inducibility of the ODN1826 group)=the ratio against average value In the case of an adjuvant comprising ODN2006 (Average of CTL inducibility of the adjuvant group)/(Average of CTL inducibility of the ODN2006 group)=the ratio against average value
# CTL inducibility of each adjuvant was shown when CTL inducibility of ssCpG ODN was taken as 1, so the bigger value means the higher CTL inducibility.
# B16F10 cells = test: Anti-tumor effect of TRP2 peptide vaccine using an adjuvant; format: in vivo, mouse
# Experimental: After immunization by TRP2 peptide vaccine, B16F10 cells (ATTC) which is mouse melanoma expressing TRP2 protein was subcutaneously transplanted to evaluate anti-tumor effect. […] The major and minor axes of the engrafted tumor were measured every 2 to 3 days, and the tumor volume was calculated by the formula: (major axis×minor axis^2)/2 Calculation method for indicators of anti-tumor effect For the adjuvant comprising ODN1826 100·(average tumor volume of adjuvant group)/(average tumor volume of ODN1826 group) For the adjuvant comprising ODN2006 100·(average tumor volume of adjuvant group)/(average tumor volume of ODN2006 group)
substance,measurement,setting,value
Amph1826 [SEQ-2],Ratio of average value of antigen-specific CTL,"TRP2-specific CTL; Table 34, 1.57 nmol/head, ODN1826 (SEQ-1) group = 1",1.68
same,Ratio of average value of antigen-specific CTL,"TRP2-specific CTL; Table 36, 1.57 nmol/head (Montanide 100 μL), ODN1826 (SEQ-1) group = 1",3.23
same,Ratio of average value of antigen-specific CTL,"TRP2-specific CTL; Table 37, 1.57 nmol/head, ODN1826 (SEQ-1) group = 1",3.11
same,CTL inducibility (in words),TRP2-specific CTL; adjuvants comprising ODN1826,higher CTL inducibility than ODN1826
same,tumor inhibition rate compared to ODN1826,"B16F10 cells; Day 12 after transplantation, Result 4-B, FIG. 3",about 3.5%
same,tumor inhibition rate compared to ODN1826,"B16F10 cells; Day 12 after transplantation, Result 6-B, FIG. 4",64.3%
same,tumor inhibition rate compared to ODN1826,"B16F10 cells; Day 14 after transplantation, Result 7-B, FIG. 5",about 72.6%
same,Tumor inhibition rate (Day 14 after transplantation),"B16F10 cells; Table 37, 1.57 nmol/head, compared to ODN1826 (SEQ-1)",72.64%
ODN2006 [SEQ-49],Ratio of average value of antigen-specific CTL,"TRP2-specific CTL; Table 38, 4.71 nmol/head, ODN2006 (SEQ-49) group = 1",1.00
same,Ratio of average value of antigen-specific CTL,"TRP2-specific CTL; Table 39, 4.71 nmol/head, ODN2006 (SEQ-49) group = 1",1.00
same,Ratio of average value of antigen-specific CTL,"TRP2-specific CTL; Table 40, 4.71 nmol, ODN2006 (SEQ-49) group = 1",1.00
same,Ratio of average value of antigen-specific CTL,"TRP2-specific CTL; Table 41, 4.71 nmol, ODN2006 (SEQ-49) group = 1",1.00
same,Ratio of average value of antigen-specific CTL,"TRP2-specific CTL; Table 42, 4.71 nmol, ODN2006 (SEQ-49) group = 1",1.00
same,Ratio of average value of antigen-specific CTL,"TRP2-specific CTL; Table 43, 4.71 nmol, ODN2006 (SEQ-49) group = 1",1.00
same,Ratio of average value of antigen-specific CTL,"TRP2-specific CTL; Table 44, 4.71 nmol, ODN2006 (SEQ-49) group = 1",1.00
same,Ratio of average value of antigen-specific CTL,"TRP2-specific CTL; Table 45, 4.71 nmol, ODN2006 (SEQ-49) group = 1",1.00
same,Ratio of average value of antigen-specific CTL,"TRP2-specific CTL; Table 46, 4.71 nmol, ODN2006 (SEQ-49) group = 1",1.00
same,Ratio of average value of antigen-specific CTL,"TRP2-specific CTL; Table 47, 4.71 nmol, ODN2006 (SEQ-49) group = 1",1.00
same,Ratio of average value of antigen-specific CTL,"TRP2-specific CTL; Table 48, 4.71 nmol, ODN2006 (SEQ-49) group = 1",1.00
same,Ratio of average value of antigen-specific CTL,"TRP2-specific CTL; Table 49, 4.71 nmol, ODN2006 (SEQ-49) group = 1",1.00
same,Ratio of average value of antigen-specific CTL,"TRP2-specific CTL; Table 50, 4.71 nmol, ODN2006 (SEQ-49) group = 1",1.00
same,Ratio of average value of antigen-specific CTL,"TRP2-specific CTL; Table 51, 4.71 nmol, ODN2006 (SEQ-49) group = 1",1.00
same,Ratio of average value of antigen-specific CTL,"TRP2-specific CTL; Table 52, 4.71 nmol, ODN2006 (SEQ-49) group = 1",1.00
same,Ratio of average value of antigen-specific CTL,"TRP2-specific CTL; Table 53, 4.71 nmol, ODN2006 (SEQ-49) group = 1",1.00
same,Ratio of average value of antigen-specific CTL,"TRP2-specific CTL; Table 54, 4.71 nmol, ODN2006 (SEQ-49) group = 1",1.00
same,Ratio of average value of antigen-specific CTL,"TRP2-specific CTL; Table 55, 4.71 nmol, ODN2006 (SEQ-49) group = 1",1.00
same,Ratio of average value of antigen-specific CTL,"TRP2-specific CTL; Table 57, 4.71 nmol, ODN2006 (SEQ-49) group = 1",1.00
same,Ratio of average value of antigen-specific CTL,"TRP2-specific CTL; Table 58, 4.71 nmol, ODN2006 (SEQ-49) group = 1",1.00
same,Ratio of average value of antigen-specific CTL,"TRP2-specific CTL; Table 59, 4.71 nmol, ODN2006 (SEQ-49) group = 1",1.00
same,Ratio of average value of antigen-specific CTL,"TRP2-specific CTL; Table 60, 4.71 nmol, ODN2006 (SEQ-49) group = 1",1.00
same,Ratio of average value of antigen-specific CTL,"TRP2-specific CTL; Table 61, 4.71 nmol, ODN2006 (SEQ-49) group = 1",1.00
same,Ratio of average value of antigen-specific CTL,"TRP2-specific CTL; Table 62, 4.71 nmol, ODN2006 (SEQ-49) group = 1",1.00
same,Ratio of average value of antigen-specific CTL,"TRP2-specific CTL; Table 63, 4.71 nmol, ODN2006 (SEQ-49) group = 1",1.00
same,Ratio of average value of antigen specific CTL,"TRP2-specific CTL; Table 64, 4.71 nmol, ODN2006 (SEQ-49) group = 1",1.00
same,Ratio of average value of antigen-specific CTL,"TRP2-specific CTL; Table 67, 4.71 nmol, ODN2006 (SEQ-49) group = 1",1.00
same,Ratio of average value of antigen-specific CTL,"TRP2-specific CTL; Table 68, 4.71 nmol, ODN2006 (SEQ-49) group = 1",1.00
same,effect of inhibition on tumor progression of B16F10 cells (in words),B16F10 cells,little effect of inhibition on tumor progression of B16F10 cells
same,Tumor inhibition rate (Day 12 after transplantation),"B16F10 cells; Table 41, 4.71 nmol, compared to ODN2006 (SEQ-49)",0.00%
same,Tumor inhibition rate (Day 12 after transplantation),"B16F10 cells; Table 42, 4.71 nmol, compared to ODN2006 (SEQ-49)",0.00%
same,Tumor inhibition rate (Day 14 after transplantation),"B16F10 cells; Table 43, 4.71 nmol, compared to ODN2006 (SEQ-49)",0.00%
same,Tumor inhibition rate (Day 14 after transplantation),"B16F10 cells; Table 45, 4.71 nmol, compared to ODN2006 (SEQ-49)",0.00%
same,Tumor inhibition rate (Day 14 after transplantation),"B16F10 cells; Table 46, 4.71 nmol, compared to ODN2006 (SEQ-49)",0.00%
same,Tumor inhibition rate (Day 14 after transplantation),"B16F10 cells; Table 48, 4.71 nmol, compared to ODN2006 (SEQ-49)",0.00%
